According to patent US20120077883A1, “TREATMENT OF TINNITUS AND ASSOCIATED AUDITORY DYSFUNCTIONS” (priority 2009, published 2012):
Where two headings read alike, the source gives them in different places.

Experiments:
fibromyalgia patients = details: 10 to 40 mg over a 12 week period; cited from earlier work
subjects with tinnitus = tested on: subjects with tinnitus
Description: Four selected outcome variables were used in this preliminary analysis: Global improvement (GI), Tinnitus Handicap Inventory (THI) and Tinnitus Impairment Questionnaire (TBF 12) questionnaires and Minimum Masking Levels (MML). The changes on the outcome variables were obtained by subtracting week 12's scores from the screening scores. The presence of a negative result means a decrease on values.
In Table 2 the changes on outcome variables are listed by Global Improvement (GI) classification, as follows: GI 1=much better; 2=better; 3=slightly better; 4=no change; 5=slightly worse; 6=worse; 7=much worse; THI: Tinnitus Handicap Inventory, TBF 12: Tinnitus Impairment Questionnaire; MML: minimal masking levels, measured in dB HL (Hearing Level).
Four different criteria were established to determine whether a subject responded or not to treatment (see Table 3).

[1] = Criteria 1: improvement on GI, 15 subjects
[2] = Criteria 2: Criteria 1 + decrease on THI
[3] = Criteria 3: Criteria 2 + decrease on TBF 12
[4] = Criteria 4: Criteria 3 + decrease on MML

In the case of `CN(C)CCC=C1c2ccccc2C=Cc2ccccc21` [Cyclobenzaprine], the “Quality of sleep and pain score” value (fibromyalgia patients) is given as “significantly improved”, the “Total number of tender points and muscle tightness” value (fibromyalgia patients) is given as “reduction” and the “Most frequent side effects” value (subjects with tinnitus; 15 subjects, oral 15-30 mg/day) is given as “dry mouth and constipation”. The Non responders % (subjects with tinnitus; Criteria 1: improvement on GI) was 26.7%, the Non responders n (subjects with tinnitus; Criteria 1: improvement on GI) was 4 and the Responders % (subjects with tinnitus; [1]) was 73.3%. The Responders n (subjects with tinnitus; [1]) was 11, the Non responders % (subjects with tinnitus; [2]) was 26.4% and the Non responders n (subjects with tinnitus; [2]) was 4. It also gave a Responders % (subjects with tinnitus; [2]) of 73.3%, a Responders n (subjects with tinnitus; [2]) of 11 and a Non responders % (subjects with tinnitus; [3]) of 33.3%. The Non responders n (subjects with tinnitus; [3]) was 5, the Responders % (subjects with tinnitus; [3]) was 66.6% and the Responders n (subjects with tinnitus; [3]) was 10. It also gave a Non responders % (subjects with tinnitus; [4]) of 46.7%, a Non responders n (subjects with tinnitus; [4]) of 7 and a Responders % (subjects with tinnitus; [4]) of 53.3%. For the same molecule, the Responders n (subjects with tinnitus; [4]) was 8, the “Subjects Better or Much Better on GI” value (subjects with tinnitus; FIG. 1, 15 subjects) was 8 subjects and the Tolerability (subjects with tinnitus; common side effects like constipation and dry mouth) was “tolerated well by most subjects”. The “Sleep and muscle relaxation” value (subjects with tinnitus; described by many patients) was “Improvement on sleep and muscle relaxation”, the “Subjects with changes on tinnitus pitch” value (subjects with tinnitus; human, in vivo) was 5 out of 15 subjects and the “Side effect that led one subject to interrupt the study” value (subjects with tinnitus; one subject, week 8) was “severe constipation”. For the same molecule, the “Results in tinnitus at a dosage of 30 mg/day” value (subjects with tinnitus; oral, 30 mg/day) was “Excellent results”, the “Tinnitus change noticed where MML was not possible to measure” value (subjects with tinnitus; subject 3, intermittent tinnitus) was “change on intensity and less episodes” and the “Progression of Minimum Masking Levels (MML) during the tests” value (subjects with tinnitus; subjects 4, 8, 9, 10 and 11, FIGS. 2-6) was “progressive reduction”. For the same molecule, the “Effect on tinnitus severity and tinnitus loudness” value (subjects with tinnitus; tested subjects) was “positive effect” and the “Tinnitus after treatment was weaned off” value (subjects with tinnitus; weaned off after 12 weeks) was “got worse in some patients”.
